Measurements from PMC12131194, “Rational design, synthesis, and evaluation of novel polypharmacological compounds targeting NaV1.5, KV1.5, and K2P channels for atrial fibrillation” (The Journal of Biological Chemistry, 2025).

Tested on: human atrial cardiomyocytes from patients with sinus rhythm (SR)
Experiment: Patch-clamp action potential recordings, atrial cardiomyocytes of sinus rhythm patients
Type: cell-based
Procedure: A total of 10 patients with sinus rhythm (SR) (N = 5) or atrial fibrillation (AF) (N = 5) undergoing open heart surgery for coronary artery bypass grafting, heart valve replacement or heart transplantation were included in the study (Table S7). A written informed consent was given by all patients. The study protocol involving human tissue samples was approved by the responsible Ethics Committee of the Medical Faculty of Heidelberg University (Germany; S-017/2013) and was conducted in accordance with the 1964 Declaration of Helsinki.
The right atrial human tissue samples were transported in chilled Ca^2+-free solution (100 mM NaCl, 10 mM KCl, 1.2 mM KH2PO4, 5 mM MgSO4, 50 mM taurine, 5 mM 3-(N-morpholino)propanesulfonic acid (MOPS), 30 mM 2,3-butanedione monoxime and 20 mM glucose, pH 7.0 with NaOH). After dissection into small chunks, the samples were rinsed for 5 minutes with calcium-free Tyrode's solution, which was oxygenated with 100% O2 at 37 °C. The samples were then digested with collagenase type I (288 U/ml; Worthington) and protease type XXIV (5 mg/ml; Sigma-Aldrich, Steinheim, Germany) for 10 to 15 min, followed by an increase in calcium concentration to 0.2 mM. After an additional 35 min of agitation in protease-free solution, rod-shaped single cardiomyocytes were harvested. The suspension was centrifuged, and the cells were resuspended in storage (“Kraftbrühe”, KB) medium (20 mM KCl, 10 mM KH2PO4, 25 mM glucose, 40 mM D-Mannitol, 70 mM K glutamate, 10 mM β-hydroxybutyrate, 20 mM taurine, 10 mM ethylene glycol tetraacetic acid (EGTA), and 1% albumin) until usage in patch-clamp experiments.
Patch-clamp glass pipettes were fabricated from borosilicate glass (1B120F-4; World Precision Instruments). After back-filling with patch-clamp internal solution (134 mM K gluconate, 6 mM NaCl, 1.2 mM MgCl2, 1 mM Mg-ATP, 10 mM HEPES, pH 7.2 with KOH), tip resistances ranged from 5 to 10 MΩ. All experiments were carried out at room temperature under constant superfusion with patch-clamp extracellular solution containing 137 mM NaCl, 5.4 mM KCl, 1 mM MgCl2, 2 mM CaCl2, 10 mM HEPES, 10 mM glucose (pH 7.3 with NaOH). AP-recordings were performed in current clamp mode: The holding current was adjusted such that the cell’s resting membrane potential was approximately −70 mV at baseline. APs were induced by short (5 ms) depolarizing current pulses at a rate of 0.5 Hz. Data was not adjusted for potential differences caused by liquid junctions, and no leak subtraction was performed.
Data acquisition and analysis were performed using the pCLAMP10 software (Axon Instruments) and statistical analysis was done using Prism 8 (GraphPad Software). Data is presented as the mean ± standard error of the mean (SEM). Statistical comparisons were made using Dunnett’s post hoc test. A p value of < 0.05 was considered significant.

[1] = SR, 1, 6.25 and 12.5 μM, significant at 12.5 μM (p < 0.05)

CCCCN(CCCC)CC(=O)Nc1ccc(OC)cc1OC [Compound 6f, 2-(dibutylamine)-N-(2,4-dimethoxiphenyl)acetamide]
Resting membrane potential (RMP) (SR, 6.25 μM): slight increase | APD50 vs baseline (SR, 1, 6.25 and 12.5 μM): only minor effects | APD90 vs baseline (SR, 1, 6.25 and 12.5 μM): only minor effects | Action potential amplitude (APA) vs baseline [1]: concentration-dependent decrease | Maximal upstroke velocity (dV/dtmax) vs baseline [1]: concentration-dependent decrease
